Reference: article PMC11456916, “A screen for cell envelope stress uncovers an inhibitor of prolipoprotein diacylglyceryl transferase, Lgt, in Escherichiacoli” (iScience, 2024)
pIC50: −log10 of the molar value. Read-outs that look alike come from different tables or passages of the source.

Experiments:
K. aerogenes CO045 = assay: MIC assay with or without SPR741, K. aerogenes; assay type: cell-based, Klebsiella aerogenes; details: for MIC: Klebsiella aerogenes
Procedure: We next sought to determine whether we could achieve growth inhibition of wild-type E. coli using MAC-0452936 and an antibiotic adjuvant. […] To that end, we determined the MIC of MAC-0452936 against wild-type E. coli in the presence and absence of a sub-MIC concentration of SPR741 (Figure S8B). […] We leveraged this combination to characterize the spectrum of activity of MAC-0452936 against a panel of Gram-negative pathogens (Table 2). In the presence of 8 μg/mL SPR741, we observed MAC-0452936 activity against the clinical E. coli isolates C0244 and CFT073 at 2 μg/mL as well as against Salmonella Typhimurium SL1344 at 4 μg/mL.
(§1) For MIC assays, cultures of bacteria were grown in LB broth. Overnight cultures were diluted (1:100) into fresh LB media and grown to the mid-log phase of growth (OD600 ∼0.5). Subcultures were then normalized to an OD600 of 0.1, and diluted (1:5000) into assay media. Assay plates were then incubated for 18 h at 37°C, then OD600 was measured using a Biotek Neo plate reader.

[1] = test system: E. coli and the Gram-positive organisms Staphylococcus aureus and Bacillus subtilis; assay: Growth inhibition in dose of E. coli and Gram-positive organisms; assay type: cell-based; details: tested in dose against E. coli, S. aureus and B. subtilis
Procedure: Of these 24 compounds, six were prioritized for further follow-up based on structural novelty relative to known antibacterial scaffolds and were tested in dose for growth inhibition of E. coli and the Gram-positive organisms Staphylococcus aureus and Bacillus subtilis (Figure S5). We hypothesized that compounds active against E. coli, but not the Gram-positive organisms, might target processes involved in the Gram-negative outer-membrane synthesis, many of which were identified as possible targets in our genetic screen. Importantly, these processes are either absent or not essential for growth in Gram-positive organisms, offering promise for narrow-spectrum applications.
as §1

[2] = molecular target: T1, prolipoprotein diacylglyceryl transferase, Lgt (Escherichia coli, UniProt P60955); assay: In vitro Lgt biochemical assay (phosphatidylglycerol and Pal-IAAC peptide substrates); set-up: species or system E. coli
T1 construct: Expression, purification, and in vitro Lgt biochemical assay were conducted as described by Diao et al; made in house
T1 sequence (P60955 whole entry): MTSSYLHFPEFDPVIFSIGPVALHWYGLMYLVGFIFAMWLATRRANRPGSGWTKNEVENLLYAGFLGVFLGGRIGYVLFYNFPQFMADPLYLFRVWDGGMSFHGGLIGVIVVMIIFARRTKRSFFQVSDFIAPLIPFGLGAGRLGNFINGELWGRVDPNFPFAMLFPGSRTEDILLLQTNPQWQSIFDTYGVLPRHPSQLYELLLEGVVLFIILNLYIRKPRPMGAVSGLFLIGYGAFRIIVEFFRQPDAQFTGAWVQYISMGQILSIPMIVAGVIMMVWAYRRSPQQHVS
From the text: With both genetic and phenotypic evidence supporting MAC-0452936 inhibiting Lgt in E. coli, we next investigated whether MAC-0452936 could inhibit Lgt activity in vitro. Recently, a biochemical assay for Lgt activity was developed using phosphatidylglycerol and Pal-IAAC peptide as substrates.[12] […] As similar results were obtained using two different Lgt enzyme preparations, the inhibition observed by MAC-0452936 was not dependent on the preparation of the lipid matrix. Together, we present genetic, phenotypic, and biochemical evidence that MAC-0452936 inhibits the growth of E. coli through inhibition of Lgt. MAC-0452936 represents a previously undiscovered small molecule inhibitor of bacterial Lgt, and the oxime ester represents a promising chemical scaffold for antibiotic discovery.
Expression, purification, and in vitro Lgt biochemical assay were conducted as described by Diao et al.[12]

E. coli ΔtolC-pore Δlpp = assay: MIC in lpp deletion background; assay type: cell-based; details: E. coli ΔtolC-pore Δlpp versus E. coli ΔtolC-pore
From the text: We next turned to genetic approaches to confirm the mechanism of action of MAC-0452936. […] To that end, we screened the E. coli CRISPRi collection in the ΔtolC-pore genetic background with a sub-inhibitory concentration of MAC-0452936 and measured the fitness of all 356 CRISPRi mutants (Figure 4C and Data S4). […] Depletion of Lgt by CRISPRi provided supporting evidence that MAC-0452936 targeted Lgt in E. coli; however, we sought to confirm this observation using a parallel genetic approach. We hypothesized that MAC-0452936 potency would also be affected by high-copy expression of lgt. To that end, we introduced either an arabinose inducible copy of lgt supplied on the pCHAP9231 plasmid[48] or the pBAD19s plasmid as a control into E. coli ΔtolC-pore and tested the potency of MAC-0452936 (Figure 4E). Induction of lgt expression with arabinose suppressed the activity of MAC-0452936 by about 8-fold. […] To test this hypothesis, we constructed E. coli ΔlgtΔtolC-pore with pCHAP9231[48] so that lgt expression was driven solely by arabinose from the plasmid. […] To test this observation with MAC-0452936, we introduced an lpp deletion into our screening strain E. coli ΔtolC-pore and assessed the activity of our Lgt inhibitor in this mutant background. […]

HEK293t cells = assay: In vitro cytotoxicity (PrestoBlue cell viability); assay type: cell-based, human; details: 24 h
Procedure: To determine the haemolytic activity and cytotoxicity of MAC-0452936, pooled human blood and HEK293t cells were used, respectively. Fresh pooled human blood for haemolytic assay was acquired from […] Technologies, whilst, HEK293t cells were originally acquired from ATCC (Cat# CRL-3216) and were regularly grown in […] (DMEM) with 10% fetal bovine serum (FBS), L-glutamine and incubated at 37°C. Cell lines are regularly tested for mycoplasma contamination.
The cytotoxicity of MAC-0452936 on HEK293t cells was determined by performing a cell viability assay using PrestoBlue Cell Viability Reagent (Invitrogen). 3 × 10^4 cells/mL were seeded in tissue culture-treated 96-well plates (Nunc; white opaque with clear bottom) in […] (DMEM) with 10% fetal bovine serum (FBS), L-glutamine and incubated at 37°C for 24 h in 5% CO2. The cells were then treated with varying concentrations of MAC-0452936 and similar percentage of DMSO as in drug (solvent control) for 24 h at 37°C. PrestoBlue reagent (20 μL) was added to the wells and incubated for 1 h in the CO2 incubator before reading the plates at excitation/emission wavelength of 560/590 nm on the Biotek Synergy Neo2 plate reader. Fluorescence values were expressed as percentage and inhibition with respect to solvent control was calculated.

Question: Which results are given for `COc1ccc(C(=O)O/N=C(\c2cccs2)C(C)(C)C)cc1` [MAC-0452936, (Z)-2-Pivaloylthiophene O-(4-methoxybenzoyl) oxime]?
Answer: MIC, K. aerogenes CO045 + 8 μg/mL SPR741 (K. aerogenes CO045; 8 μg/mL SPR741): did not observe MAC-0452936 activity; MIC (K. aerogenes CO045; CO045, read-out: MIC, K. aerogenes CO045 + 8 μg/mL SPR741): > 64 µg/mL; MIC (K. aerogenes CO045; CO045, read-out: MIC, K. aerogenes CO045 + 0 μg/mL SPR741): > 64 µg/mL; spectrum of growth inhibition, E. coli versus Gram-positive organisms [1]: specifically inhibit E. coli; pIC50 ([2]; in vitro Lgt inhibition Amph-Lgt IC50, Lgt purified using amphipol lipid matrix): 6.23; pIC50 ([2]; in vitro Lgt inhibition DDM-Lgt IC50, Lgt purified using DDM lipid matrix): 5.84; sensitization by deletion of lpp (E. coli ΔtolC-pore Δlpp): 2 fold; concentrations giving a modest decrease in the viability of HEK-293 cells (HEK293t cells): greater than 8 μg/mL; cytotoxicity to HEK-293 cells (HEK293t cells; at MIC concentrations): did not observe
